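Cultured in 96-well plates, cells were exposed to test compound for 48 hours across five concentrations. At the GI50, growth is halved.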 The source made the active and inactive calls. Cut-off read from the data, not from the text of the source: active = GI50 up to about 1.1 µM and inactive = higher.
Experiments:
Assay in all cases: NCI-60 cell line screen, 48 h
SF-268 = test system: SF-268
OVCAR-5 = test system: OVCAR-5
SNB-75 = test system: SNB-75
SF-539 = test system: SF-539
A498 = test system: A498
HCT-15 = test system: HCT-15
SK-OV-3 = test system: SK-OV-3
HL-60 = test system: HL-60
HOP-62 = test system: HOP-62
SF-295 = test system: SF-295
IGROV-1 = test system: IGROV-1
NCI-H522 = test system: NCI-H522
RXF 393 = test system: RXF 393
CCRF-CEM = test system: CCRF-CEM
A549 = test system: A549
UO-31 = test system: UO-31
RPMI-8226 = test system: RPMI-8226
UACC-257 = test system: UACC-257
SK-MEL-5 = test system: SK-MEL-5
M14 = test system: M14

SMILES: O=C1ON(Cc2ccccc2)C(c2ccccc2)N1c1ccccc1 (stereo unspecified)
- GI50 (SF-268): > 100 µM (inactive)
- GI50 (OVCAR-5): > 100 µM (inactive)
- GI50 (SNB-75): 62.7 µM (inactive)
- GI50 (SF-539): > 100 µM (inactive)
- GI50 (A498): > 100 µM (inactive)
- GI50 (HCT-15): > 100 µM
- GI50 (SK-OV-3): > 100 µM (inactive)
- GI50 (HL-60): > 70.5 µM (inactive)
- GI50 (HOP-62): > 100 µM (inactive)
- GI50 (SF-295): > 64 µM (inactive)
- GI50 (IGROV-1): > 100 µM (inactive)
- GI50 (NCI-H522): > 100 µM (inactive)
- GI50 (RXF 393): > 100 µM (inactive)
- GI50 (CCRF-CEM): > 100 µM (inactive)
- GI50 (A549): > 100 µM (inactive)
- GI50 (UO-31): > 100 µM (inactive)
- GI50 (RPMI-8226): > 100 µM (inactive)
- GI50 (UACC-257): > 100 µM (inactive)
- GI50 (SK-MEL-5): > 100 µM (inactive)

SMILES: O=NN1C(c2ccccc2)CCCC1c1ccccc1 (stereo unspecified)
- GI50 (SF-268): > 100 µM (inactive)
- GI50 (OVCAR-5): > 100 µM (inactive)
- GI50 (SNB-75): 28.3 µM (inactive)
- GI50 (SF-539): > 100 µM (inactive)
- GI50 (A498): 15.1 µM (inactive)
- GI50 (HCT-15): 62.4 µM
- GI50 (SK-OV-3): 31.9 µM (inactive)
- GI50 (HL-60): 26.8 µM (inactive)
- GI50 (HOP-62): > 100 µM (inactive)
- GI50 (SF-295): 22.1 µM (inactive)
- GI50 (IGROV-1): > 89.7 µM (inactive)
- GI50 (NCI-H522): 23.4 µM (inactive)
- GI50 (RXF 393): 44.5 µM (inactive)
- GI50 (CCRF-CEM): 52.1 µM (inactive)
- GI50 (A549): > 71 µM (inactive)
- GI50 (UO-31): 42.4 µM (inactive)
- GI50 (RPMI-8226): 21.7 µM (inactive)
- GI50 (UACC-257): 72.1 µM (inactive)
- GI50 (SK-MEL-5): 49.4 µM (inactive)

SMILES: CC(=O)OCC1OC(OCCCCCCO)C(OC(C)=O)C(OC(C)=O)C1OC(C)=O (stereo unspecified)
- GI50 (SF-268): > 100 µM (inactive)
- GI50 (OVCAR-5): > 100 µM (inactive)
- GI50 (SNB-75): > 100 µM (inactive)
- GI50 (SF-539): > 100 µM (inactive)
- GI50 (A498): > 100 µM (inactive)
- GI50 (HCT-15): > 100 µM
- GI50 (SK-OV-3): > 100 µM (inactive)
- GI50 (M14): > 100 µM (inactive)
- GI50 (HL-60): > 100 µM (inactive)
- GI50 (HOP-62): > 100 µM (inactive)
- GI50 (SF-295): > 100 µM (inactive)
- GI50 (IGROV-1): > 100 µM (inactive)
- GI50 (NCI-H522): > 100 µM (inactive)
- GI50 (RXF 393): > 100 µM (inactive)
- GI50 (CCRF-CEM): > 100 µM (inactive)
- GI50 (A549): > 100 µM (inactive)
- GI50 (UO-31): > 100 µM (inactive)
- GI50 (RPMI-8226): > 100 µM (inactive)
- GI50 (UACC-257): > 100 µM (inactive)

SMILES: O=C1C(Cl)N(c2cccc(Cl)c2)C1c1c[nH]c2ccccc12 (stereo unspecified)
- GI50 (SF-268): > 100 µM (inactive)
- GI50 (SNB-75): > 100 µM (inactive)
- GI50 (SF-539): > 100 µM (inactive)
- GI50 (SK-OV-3): > 100 µM (inactive)
- GI50 (M14): > 100 µM (inactive)
- GI50 (HL-60): > 100 µM (inactive)
- GI50 (HOP-62): > 100 µM (inactive)
- GI50 (SF-295): > 100 µM (inactive)
- GI50 (IGROV-1): > 100 µM (inactive)
- GI50 (NCI-H522): > 100 µM (inactive)
- GI50 (RXF 393): > 100 µM (inactive)
- GI50 (CCRF-CEM): > 100 µM (inactive)
- GI50 (A549): > 100 µM (inactive)
- GI50 (UO-31): > 100 µM (inactive)
- GI50 (RPMI-8226): > 100 µM (inactive)
- GI50 (UACC-257): > 100 µM (inactive)
- GI50 (SK-MEL-5): > 100 µM (inactive)

SMILES: O=C(CC(C(=O)c1cccs1)c1ccc2c(c1)OCO2)c1ccc(Br)cc1 (stereo unspecified)
- GI50 (SF-268): > 100 µM (inactive)
- GI50 (SNB-75): > 100 µM (inactive)
- GI50 (A498): > 100 µM (inactive)
- GI50 (HCT-15): > 100 µM
- GI50 (SK-OV-3): > 100 µM (inactive)
- GI50 (M14): > 100 µM (inactive)
- GI50 (HL-60): > 100 µM (inactive)
- GI50 (HOP-62): > 100 µM (inactive)
- GI50 (SF-295): > 100 µM (inactive)
- GI50 (IGROV-1): > 100 µM (inactive)
- GI50 (CCRF-CEM): > 100 µM (inactive)
- GI50 (A549): > 100 µM (inactive)
- GI50 (UO-31): 14.9 µM (inactive)
- GI50 (RPMI-8226): > 100 µM (inactive)
- GI50 (UACC-257): > 100 µM (inactive)
- GI50 (SK-MEL-5): > 100 µM (inactive)

SMILES: COc1ccc2c(c1)CCN=C2Cc1cc(OC)c(OC)cc1CCCl
- GI50 (SF-268): 48.6 µM (inactive)
- GI50 (OVCAR-5): 17.3 µM (inactive)
- GI50 (SNB-75): > 100 µM (inactive)
- GI50 (SF-539): 16.2 µM (inactive)
- GI50 (SK-OV-3): > 100 µM (inactive)
- GI50 (M14): 21.2 µM (inactive)
- GI50 (HOP-62): 3.08 µM (inactive)
- GI50 (SF-295): 30.9 µM (inactive)
- GI50 (IGROV-1): 52.4 µM (inactive)
- GI50 (NCI-H522): 21.7 µM (inactive)
- GI50 (RXF 393): 24.9 µM (inactive)
- GI50 (CCRF-CEM): > 100 µM (inactive)
- GI50 (A549): 96.4 µM (inactive)
- GI50 (UO-31): 29.2 µM (inactive)
- GI50 (RPMI-8226): 55 µM (inactive)
- GI50 (UACC-257): 45.4 µM (inactive)
- GI50 (SK-MEL-5): 17.5 µM (inactive)

SMILES: O=C1C=CC2=[N+]([O-])C(c3ccccc3)(c3ccccc3)/C(=N\c3ccccc3)C2=C1
- GI50 (SF-268): 3.28 µM (inactive)
- GI50 (OVCAR-5): 16.4 µM (inactive)
- GI50 (SNB-75): 3.22 µM (inactive)
- GI50 (SF-539): 6.85 µM (inactive)
- GI50 (HCT-15): 2.03 µM
- GI50 (SK-OV-3): 17.8 µM (inactive)
- GI50 (M14): 1.97 µM (inactive)
- GI50 (HL-60): 0.349 µM (active)
- GI50 (HOP-62): 14.6 µM (inactive)
- GI50 (SF-295): 14.5 µM (inactive)
- GI50 (IGROV-1): 1.82 µM (inactive)
- GI50 (NCI-H522): 1.61 µM (inactive)
- GI50 (RXF 393): 1.6 µM (inactive)
- GI50 (CCRF-CEM): 0.407 µM (active)
- GI50 (A549): 15.4 µM (inactive)
- GI50 (UO-31): 2.21 µM (inactive)
- GI50 (RPMI-8226): 2.96 µM (inactive)
- GI50 (UACC-257): 2.38 µM (inactive)
- GI50 (SK-MEL-5): 14.2 µM (inactive)
